Source: patent US7176199B2, “Aryl-substituted alicyclic compound and medical composition comprising the same” (Dainippon Pharmaceutical Co., Ltd., priority 2001, dated 2007)
Where two headings read alike, the source gives them in different places.

Experiments:
αvβ3 integrin [1] = molecular target: T1, αvβ3 integrin (Homo sapiens, UniProt P05106+P06756); experiment: Assay for the inhibition of αvβ3 integrin binding (vitronectin as ligand); parameters: purchased Chemicon International, Inc., USA; details: inhibition of specific binding of biotinylated human vitronectin to immobilized αvβ3 integrin
αIIbβ3 integrin = molecular target: T2, αIIbβ3 integrin (Homo sapiens, UniProt P05106+P08514); experiment: Assay for the inhibition of αIIbβ3 integrin binding (fibrinogen as ligand, integrin captured from platelet lysate); details: inhibition of specific binding of biotinylated fibrinogen to αIIbβ3 integrin from human platelet lysate
T2 construct: from tissue; host or cells: human platelets (Triton X-100 lysate)

GPIIb/IIIa = GPIIb/IIIa (Homo sapiens, UniProt P05106+P08514); details: read-out: GPIIb/IIIa inhibitory activity IC50 value, cited from earlier work
αvβ3 integrin [2] = molecular target: T1, αvβ3 integrin; details: reported in WO 99/52872; read-out: αvβ3 integrin inhibitory activity IC50 value; cited from earlier work

T1 sequence (P06756 31-889 limits assumed): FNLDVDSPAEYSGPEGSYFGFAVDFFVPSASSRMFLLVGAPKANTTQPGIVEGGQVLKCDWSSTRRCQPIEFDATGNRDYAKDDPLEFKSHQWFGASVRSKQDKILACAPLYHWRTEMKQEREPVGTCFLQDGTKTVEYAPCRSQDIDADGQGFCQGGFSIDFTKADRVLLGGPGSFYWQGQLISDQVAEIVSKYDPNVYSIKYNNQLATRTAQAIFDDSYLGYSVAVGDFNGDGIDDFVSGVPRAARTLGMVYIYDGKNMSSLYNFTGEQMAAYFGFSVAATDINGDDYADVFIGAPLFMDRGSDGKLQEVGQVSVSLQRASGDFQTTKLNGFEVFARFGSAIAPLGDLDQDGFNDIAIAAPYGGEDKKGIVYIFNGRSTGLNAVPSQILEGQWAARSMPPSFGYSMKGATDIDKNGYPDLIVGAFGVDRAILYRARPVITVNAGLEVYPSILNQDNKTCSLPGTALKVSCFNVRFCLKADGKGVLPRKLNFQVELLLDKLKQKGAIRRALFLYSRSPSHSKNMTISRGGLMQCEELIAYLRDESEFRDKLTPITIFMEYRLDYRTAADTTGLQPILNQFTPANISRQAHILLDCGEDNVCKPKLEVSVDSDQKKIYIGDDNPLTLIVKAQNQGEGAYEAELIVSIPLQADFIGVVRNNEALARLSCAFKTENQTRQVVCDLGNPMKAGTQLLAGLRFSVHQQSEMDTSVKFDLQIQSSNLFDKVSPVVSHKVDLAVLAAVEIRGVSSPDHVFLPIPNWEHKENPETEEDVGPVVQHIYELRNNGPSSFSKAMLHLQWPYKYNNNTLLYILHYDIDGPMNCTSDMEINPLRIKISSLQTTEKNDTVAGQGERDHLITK
T1 sequence (P06756 891-1048 partner limits assumed): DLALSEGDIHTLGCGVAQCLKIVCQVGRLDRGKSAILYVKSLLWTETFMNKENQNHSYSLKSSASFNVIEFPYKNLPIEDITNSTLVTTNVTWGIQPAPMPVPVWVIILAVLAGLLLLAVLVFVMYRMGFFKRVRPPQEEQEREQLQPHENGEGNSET
T1 sequence (P05106 27-788): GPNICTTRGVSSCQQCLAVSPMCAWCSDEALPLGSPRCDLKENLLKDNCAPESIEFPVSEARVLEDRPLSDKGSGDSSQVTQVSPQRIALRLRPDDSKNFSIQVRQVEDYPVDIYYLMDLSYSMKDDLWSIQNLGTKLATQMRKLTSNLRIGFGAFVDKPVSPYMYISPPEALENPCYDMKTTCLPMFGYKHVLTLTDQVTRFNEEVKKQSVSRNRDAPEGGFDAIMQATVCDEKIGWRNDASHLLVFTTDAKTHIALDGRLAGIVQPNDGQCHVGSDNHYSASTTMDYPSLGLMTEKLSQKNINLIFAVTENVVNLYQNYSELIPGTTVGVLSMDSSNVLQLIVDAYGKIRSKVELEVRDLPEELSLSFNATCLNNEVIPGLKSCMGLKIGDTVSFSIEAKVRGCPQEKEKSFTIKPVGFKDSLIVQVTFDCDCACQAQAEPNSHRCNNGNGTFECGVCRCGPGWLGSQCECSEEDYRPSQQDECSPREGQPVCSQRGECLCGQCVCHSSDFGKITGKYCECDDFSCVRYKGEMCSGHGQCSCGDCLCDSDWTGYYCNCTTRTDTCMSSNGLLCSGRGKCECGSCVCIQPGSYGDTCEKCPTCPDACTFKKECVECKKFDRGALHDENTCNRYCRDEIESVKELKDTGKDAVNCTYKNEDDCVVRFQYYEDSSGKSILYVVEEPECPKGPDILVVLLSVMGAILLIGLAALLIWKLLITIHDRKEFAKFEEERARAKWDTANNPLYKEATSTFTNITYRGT
T2 sequence (P08514 32-887 limits assumed): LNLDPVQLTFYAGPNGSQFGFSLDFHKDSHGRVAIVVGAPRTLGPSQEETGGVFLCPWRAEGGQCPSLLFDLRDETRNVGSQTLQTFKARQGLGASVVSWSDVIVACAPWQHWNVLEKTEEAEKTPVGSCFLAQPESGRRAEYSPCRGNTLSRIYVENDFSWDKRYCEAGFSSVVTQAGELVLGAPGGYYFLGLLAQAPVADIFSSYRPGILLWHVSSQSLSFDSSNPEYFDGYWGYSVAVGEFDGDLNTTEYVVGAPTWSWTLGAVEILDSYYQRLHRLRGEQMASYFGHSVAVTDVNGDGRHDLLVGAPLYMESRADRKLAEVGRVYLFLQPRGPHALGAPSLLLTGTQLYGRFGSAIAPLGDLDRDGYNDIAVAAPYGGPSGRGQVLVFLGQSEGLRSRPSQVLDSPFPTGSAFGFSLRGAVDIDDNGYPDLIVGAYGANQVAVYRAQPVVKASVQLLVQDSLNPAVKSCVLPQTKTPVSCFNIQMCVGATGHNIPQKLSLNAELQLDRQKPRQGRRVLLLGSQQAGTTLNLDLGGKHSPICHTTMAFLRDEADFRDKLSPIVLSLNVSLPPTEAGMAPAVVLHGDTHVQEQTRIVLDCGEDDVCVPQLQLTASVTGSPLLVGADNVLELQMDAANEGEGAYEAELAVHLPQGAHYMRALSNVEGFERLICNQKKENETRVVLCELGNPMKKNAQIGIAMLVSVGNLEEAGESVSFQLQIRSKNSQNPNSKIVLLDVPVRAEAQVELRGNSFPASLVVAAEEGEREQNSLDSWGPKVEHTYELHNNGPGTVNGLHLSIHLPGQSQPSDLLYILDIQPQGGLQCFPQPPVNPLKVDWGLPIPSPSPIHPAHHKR
T2 sequence (P08514 891-1039 partner limits assumed): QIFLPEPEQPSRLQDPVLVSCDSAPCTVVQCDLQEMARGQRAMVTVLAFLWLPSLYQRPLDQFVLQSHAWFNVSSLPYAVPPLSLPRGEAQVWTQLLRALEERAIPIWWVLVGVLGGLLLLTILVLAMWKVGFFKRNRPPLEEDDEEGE
T2 sequence (P05106 27-788): as the sequence (P05106 27-788) above
Chain of GPIIb/IIIa (P08514 32-887 limits assumed): as the sequence (P08514 32-887 limits assumed) above
Chain of GPIIb/IIIa (P08514 891-1039 partner limits assumed): as the sequence (P08514 891-1039 partner limits assumed) above
Chain of GPIIb/IIIa (P05106 27-788): as the sequence (P05106 27-788) above

Structure (SMILES)	IC50 (αvβ3 integrin [1])	IC50 (αIIbβ3 integrin)	IC50 (GPIIb/IIIa; reported in WO 99/38849)	IC50 (GPIIb/IIIa; reported in WO 99/52872)	IC50 (αvβ3 integrin [2])
CC(C)COC(=O)N[C@@H](CNC(=O)C1CCN(c2cc(NC3=NCCCN3)ccn2)CC1)C(=O)O [Ex. 161]	0.1 nM	77 nM	–	–	–
CN(C[C@H](NC(=O)OCc1ccccc1)C(=O)O)C(=O)C1CCN(c2cccc(NC3=NCCCN3)c2)CC1 [Ex. 162, (2S)-2-benzyloxycarbonylamino-3-[[1-[3-(1,4,5,6-tetrahydropyrimidin-2-yl)aminophenyl]piperidin-4-yl]-N-methylcarbonylamino]propanoic acid]	0.21 nM	> 1000 nM	–	–	–
O=C(NC[C@H](NS(=O)(=O)c1ccccc1)C(=O)O)c1ccc(N2CCN(C3=NCCCN3)CC2)c(Cl)c1 [Example A-1, (2S)-2-benzenesulfonylamino-3-[3-chloro-4-[4-(1,4,5,6-tetrahydropyrimidin-2-yl)piperazin-1-yl]benzoylamino]propanoic acid]	–	–	≤ 0.2 nM	–	–
O=C(NC[C@H](NS(=O)(=O)c1ccccc1)C(=O)O)c1ccc(N2CCC(NC3=NCCCN3)CC2)c(F)c1 [Example A-2, (2S)-2-benzenesulfonylamino-3-[3-fluoro-4-[[4-(1,4,5,6-tetrahydropyrimidin-2-yl)amino]-piperidin-1-yl]benzoylamino]propanoic acid]	–	–	–	≤ 1 nM	≤ 1 nM
